Results on one compound are retold here after paper PMC6831285, “TMTP1-modified Indocyanine Green-loaded Polymeric Micelles for Targeted Imaging of Cervical Cancer and Metastasis Sentinel Lymph Node in vivo” (Theranostics, 2019).

Series [1] can be described thus: Plasma pharmacokinetic study. It is filed as in vivo, BALB/c-nude mice. The settings on record: 0.5 mg/kg ICG. How it is done: Normal BALB/c-nude mice were administered intravenously with ITM or free ICG solution at an dose of 10 μg, respectively. At designed time points of 5 min, 10 min, 30 min, 1 h, 2 h, 3 h, 4 h, 8 h and 12 h post- injection, […] blood samples were collected into EDTA tubes and centrifuged at 6000 rpm for 10 min to obtain plasma. A fluorescence spectrophotometer with excitation and emission wavelengths of 745 nm and 840 nm was used to measure the ICG of the supernatant. The ICG content in the plasma was then assayed.

The next series deals with popliteal (PO) LN. The series can be described thus: NIR fluorescence LN imaging of normal mice. It is filed as in vivo, BALB/c nude mice. Particulars: intradermal injection into right paw, ICG 1.0 mg/kg. How it is done: For the SLN metastasis model, 1 × 10^7 HeLa-luc cells in 15 μL PBS were injected into the right hock of 5-week-old BALB/c-nude mice. The mice were monitored by BLI weekly to detect tumor metastases. After 1 month, tumor was about 5 mm with PO LN metastasis. HeLa-bearing mice were divided two groups randomly (n=10) and injected ITM and IM micelles via foot at equivalent ICG dose of 2 μg. At designed time points (5 min, 30 min, 1 h, 12 h and 24 h), the NIR fluorescence images in vivo were obtained. At 30 min and 1 h post injection, 2 mice from each group were randomly sacrificed and the excised main LNs were imaged. After 24 h post injection, LNs and main organs (heart, liver, spleen, lung, and kidney) were handled as described. In the same way, normal mice were divided into two groups randomly (n=5) and injected intradermally ITM or IM via foot. The NIR fluorescence images were acquired as mentioned above.

Series [2] in a line: Photostability under visible light. Type of series: physicochemical. The settings on record: after 1 day of exposure to visible light, 10 μg/mL. How it is done: The effect of the light exposure on the degradation of ITM or IM was determined with visible light at room temperature. The ICG and ICG-loaded micelles were diluted with distilled water to a final concentration of 10 μg/mL and were loaded into a 12-well plate. The fluorescence intensity was measured for up to 6 days. After incubation, the remaining fluorescence of each sample was measured using a spectrofluorometer with excitation and emission wavelengths of 745 nm and 840 nm, respectively. For the quantitative analysis, we normalized the fluorescence signal intensity.

SMILES strings stand for the structures. A value given as a limit tells only on which side of the number the result lay.

`CC1(C)C(/C=C/C=C/C=C/C=C2\N(CCCCS(=O)(=O)O)c3ccc4ccccc4c3C2(C)C)=[N+](CCCCS(=O)(=O)[O-])c2ccc3ccccc3c21` [Free ICG, indocyanine green]: in series [1] (BALB/c-nude, mouse, iv), the concentration peaked (Cmax) at 134 ng/mL, the MRT is 268 min, the Tmax was 5 min and the clearance was determined as 18 mL/min/kg. In series [1] (BALB/c-nude, mouse, iv), this compound gave a half-life of 4 min. Moreover, in series [1] (BALB/c-nude, mouse, iv, read-out: AUC (0-12 h) in plasma (converted)), the AUC(0-t) is 224 ng·h/mL. In addition, in series [1] (i.v.), the V is 21.358 L/kg. Also, the “time within which the NIR fluorescence signal in SLN decreased quickly” value in the series with popliteal (PO) LN was at most 1 h. In addition, the “fluorescence intensity remaining, of initial value” in series [2] is listed as “less than 50%”.

For orientation: Cmax means the maximum level reached in the sampled fluid or tissue. As usually defined, the MRT is the average time that molecules of a dose stay in the body. A word on the Tmax: it is the time from dosing to the highest level. As a reminder, the clearance is the volume of plasma or blood freed of the substance per unit of time. A word on the half-life: it is the time in which the quantity being followed falls by half. Higher therefore signals slow decline.
